From PubChem BioAssay AID743339 (Broad Institute, 2014)
Activity calls are given as the source filed them.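 The calls were made as follows: active = activation curve crossing 200% at or below the highest valid dose tested for that sample; inconclusive = flat curve with activation between 30 and 70%, or poor fit; inactive = the rest, including signal falling instead of rising.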

Target: Leucyl-cystinyl aminopeptidase (Mus musculus) (UniProt Q8C129)
Experiment: IRAP activators, dose response, selectivity assay for ERAP1 modulator project, biochemical, Leu-AMC fluorescence, cherry-picked samples (AID 743339)
Settings: purified IRAP, Leu-AMC cleavage fluorescence, 1 h

Leucyl-cystinyl aminopeptidase (Mus musculus), sequence (Q8C129 whole entry, looked up): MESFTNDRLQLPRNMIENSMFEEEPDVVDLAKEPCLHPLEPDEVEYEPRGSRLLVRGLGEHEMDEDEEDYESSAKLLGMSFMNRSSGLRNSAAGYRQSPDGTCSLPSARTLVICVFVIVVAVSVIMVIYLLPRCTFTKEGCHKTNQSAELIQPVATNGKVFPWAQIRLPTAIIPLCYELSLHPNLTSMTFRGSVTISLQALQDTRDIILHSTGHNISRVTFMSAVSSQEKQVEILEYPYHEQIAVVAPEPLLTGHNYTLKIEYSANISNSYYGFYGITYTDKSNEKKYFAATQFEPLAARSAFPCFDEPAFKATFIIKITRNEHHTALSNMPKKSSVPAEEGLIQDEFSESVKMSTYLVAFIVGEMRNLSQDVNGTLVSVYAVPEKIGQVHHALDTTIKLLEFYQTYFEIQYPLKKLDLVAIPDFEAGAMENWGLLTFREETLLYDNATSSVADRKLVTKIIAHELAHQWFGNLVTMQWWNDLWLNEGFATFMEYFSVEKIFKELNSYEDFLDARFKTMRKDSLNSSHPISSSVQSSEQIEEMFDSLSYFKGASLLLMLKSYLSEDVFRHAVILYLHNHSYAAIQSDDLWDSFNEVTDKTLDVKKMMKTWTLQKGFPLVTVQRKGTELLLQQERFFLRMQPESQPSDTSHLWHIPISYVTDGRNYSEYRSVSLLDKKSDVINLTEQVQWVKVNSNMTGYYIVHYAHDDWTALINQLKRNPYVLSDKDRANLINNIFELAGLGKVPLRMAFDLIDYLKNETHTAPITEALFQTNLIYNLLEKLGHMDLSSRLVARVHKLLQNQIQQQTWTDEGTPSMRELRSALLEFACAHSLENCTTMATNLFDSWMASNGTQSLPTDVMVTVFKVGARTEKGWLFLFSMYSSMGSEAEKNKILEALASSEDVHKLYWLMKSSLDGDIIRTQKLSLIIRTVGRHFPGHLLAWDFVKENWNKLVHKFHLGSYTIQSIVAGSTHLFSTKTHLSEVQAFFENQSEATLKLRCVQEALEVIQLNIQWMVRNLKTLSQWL

| SMILES | AC200 | activation (at 11 µM (top of the series)) | other results |
| --- | --- | --- | --- |
| COc1ccc(C2=NN(c3ccc(C(=O)O)cc3)C(c3ccc(OC)c(OC)c3)C2)cc1 (stereo not given) | 824 nM | – | – |
| CCN(CC)Cc1c(O)c(Cl)cc2c(C)cc(=O)oc12 | 620 nM | – | – |
| CN1CCCC1CCNc1ccc2c(=O)c3ccccc3oc2c1 (stereo not given) | 555 nM | – | – |
| C[C@H]1CN([C@@H](C)CO)C(=O)c2cccc(NC(=O)Nc3ccc(C(F)(F)F)cc3)c2O[C@@H]1CN(C)CC1CC1 | – | -18.4% (inactive) | – |
| CCC(=O)N(C)C[C@@H]1Oc2ncc(C#Cc3ccncc3)cc2C(=O)N([C@@H](C)CO)C[C@@H]1C | – | 2.82% (inactive) | – |
| C[C@H](CO)N1C[C@H](C)[C@H](CN(C)CC2CCCCC2)Oc2c(NC(=O)Nc3ccc(C(F)(F)F)cc3)cccc2C1=O | – | 12.3% (inactive) | – |
| CC(=O)Oc1cc2oc(=O)cc(C)c2cc1Cl | 507 nM | – | – |
| COc1ccc(CN(C)C[C@H]2OCCCC[C@@H](C)Oc3ccc(NS(=O)(=O)c4cccs4)cc3C(=O)N([C@H](C)CO)C[C@H]2C)cc1 | – | 10% (inactive) | – |
| C[C@@H]1CCCCO[C@H](CN(C)Cc2ccccc2)[C@H](C)CN([C@H](C)CO)C(=O)c2cc(NS(=O)(=O)c3ccccc3)ccc2O1 | – | -9.37% (inactive) | – |
| COc1ccc(CN(C)C[C@@H]2OCCCC[C@@H](C)Oc3ccc(NS(=O)(=O)c4cccs4)cc3C(=O)N([C@H](C)CO)C[C@@H]2C)cc1 | – | 3.66% (inactive) | – |
| COCC(=O)N1[C@@H]2c3ccc(/C=C/c4ccccc4)c(=O)n3C[C@H]1[C@H](CO)[C@H]2C(=O)N1CCOCC1 | 684 nM | – | – |
| CCCN(C)C[C@@H]1OCCCC[C@@H](C)Oc2ccc(NS(=O)(=O)c3cccs3)cc2C(=O)N([C@H](C)CO)C[C@@H]1C | – | -6.14% (inactive) | – |
| O=C(C[C@H]1CC[C@@H]2[C@H](COC[C@@H](O)CN2C(=O)Nc2cccc(Cl)c2)O1)N1CCCCC1 | > 11000 nM (inactive) | – | – |
| C[C@H]1CN([C@@H](C)CO)C(=O)c2cccc(NC(=O)Nc3ccc(F)cc3)c2O[C@@H]1CN(C)C(=O)Nc1ccc2c(c1)OCO2 | – | 21.6% (inactive) | – |
| Cc1ccc(S(=O)(=O)Nc2ccc3c(c2)C(=O)N([C@@H](C)CO)C[C@H](C)[C@H](CN(C)C)OCCCC[C@@H](C)O3)cc1 | – | 8.57% (inactive) | – |
| O=S(=O)(O)c1ccc(N2N=C(c3ccccc3)CC2c2ccccc2)cc1 (stereo not given) | 1010 nM | – | – |
| COCC(=O)N1[C@@H]2Cn3c(ccc(/C=C/c4ccccc4)c3=O)[C@H]1[C@@H](C(=O)N1CCOCC1)[C@@H]2CO | 757 nM | – | – |
| C[C@@H]1CCCCO[C@@H](CN(C)Cc2ccccc2)[C@H](C)CN([C@H](C)CO)C(=O)c2cc(NS(=O)(=O)c3cccs3)ccc2O1 | – | -6.87% (inactive) | – |
| COC(=O)[C@@H]1[C@@H](CO)[C@@H]2Cn3c(ccc(/C=C/c4ccccc4)c3=O)[C@H]1N2C(=O)C1CCC1 | 1080 nM | – | – |
| COc1ccc(CN(C)C[C@@H]2OCCCC[C@H](C)Oc3ccc(NS(=O)(=O)c4cccs4)cc3C(=O)N([C@H](C)CO)C[C@@H]2C)cc1 | – | -13.3% (inactive) | – |
| Cc1ccc(-c2cc(C(=O)N3CCCC3)c3ccccc3n2)s1 | – | – | activation (at 5.6 µM (top of the series)): 152% (inactive) |
| CO[C@@H]1CN(C)C(=O)c2ccc(NC(=O)Nc3cccc(Cl)c3)cc2OC[C@@H](C)NC[C@H]1C | – | 15.1% (inactive) | – |
| O=c1cc(CN2CCOCC2)c2cc(Cl)c(O)cc2o1 | 1100 nM | – | – |
| C[C@@H]1CCCCO[C@@H](CN(C)C(=O)CCC(F)(F)F)[C@@H](C)CN([C@@H](C)CO)C(=O)c2cc(NS(=O)(=O)c3ccccc3)ccc2O1 | – | – | activation (at 2.6 µM (top of the series)): 11.6% (inactive) |

| SMILES | AC200 | activation (at 11 µM (top of the series)) | other results |
| --- | --- | --- | --- |
| CC(=O)N1[C@@H]2Cn3c(ccc(/C=C/c4ccccc4)c3=O)[C@H]1[C@@H](C(=O)NCC1CC1)[C@@H]2CO | 1290 nM | – | – |
| C[C@H](CO)N1C[C@H](C)[C@H](CN(C)Cc2ccc(C(=O)O)cc2)Oc2c(NC(=O)Nc3ccccc3)cccc2C1=O | – | 24.2% (inactive) | – |
| COC(=O)Cc1c(C)c2ccc(O)c(CNCc3ccc(OC)c(OC)c3)c2oc1=O | 535 nM | – | – |
| CCc1c(C)c2cc(Cl)c(O)c(CN(CC)CC)c2oc1=O | 546 nM | – | – |
| CCCN(C)C[C@@H]1OCCCC[C@@H](C)Oc2ccc(NS(=O)(=O)c3c(C)noc3C)cc2C(=O)N([C@H](C)CO)C[C@@H]1C | – | – | activation (at 10 µM (top of the series)): -22.5% (inactive) |
| Cc1noc(C)c1NC(=O)Nc1ccc2c(c1)C(=O)N([C@H](C)CO)C[C@@H](C)[C@@H](CN(C)Cc1ccc(C(F)(F)F)cc1)OCCCC[C@@H](C)O2 | – | -4.93% (inactive) | – |
| O=C(Nc1ccc(C(F)(F)F)cc1)N1[C@@H]2CNC[C@H]1C2c1ccc(-c2ccncc2)cc1 (stereo not given in full) | – | 4.27% (inactive) | – |
| CCCN(C)C[C@@H]1OCCCC[C@@H](C)Oc2ccc(NS(=O)(=O)c3ccccc3)cc2C(=O)N([C@H](C)CO)C[C@@H]1C | – | -6.67% (inactive) | – |
| CCNC(=O)[C@H]1[C@H](CO)[C@H]2Cn3c(ccc(/C=C/c4ccccc4)c3=O)[C@@H]1N2C(=O)C1CCCC1 | 675 nM | – | – |
| C[C@@H]1CCCCO[C@H](CN(C)Cc2ccc(C(=O)O)cc2)[C@@H](C)CN([C@H](C)CO)C(=O)c2cc(NC(=O)Nc3ccc(C(F)(F)F)cc3)ccc2O1 | – | 9.92% (inactive) | – |
| C[C@@H]1CCCCO[C@@H](CN(C)CC2CC2)[C@@H](C)CN([C@H](C)CO)C(=O)c2cc(NS(=O)(=O)c3cccs3)ccc2O1 | – | 11.9% (inactive) | – |
| Cc1c(C)c2ccc(O)c(CN3CCN(C)CC3)c2oc1=O | 1510 nM | – | – |
| COc1cccc(CN(C)Cc2cc(=O)oc3cc(O)c(Cl)cc23)c1 | 793 nM | – | – |
| O=c1ccc2cc(OC3O[C@H](CO)[C@@H](O)[C@H](O)[C@H]3O)c(O)cc2o1 (stereo not given in full) | 346 nM | – | – |
| COc1ccc(S(=O)(=O)N(C)C[C@@H]2Oc3ncccc3C(=O)N([C@H](C)CO)C[C@@H]2C)cc1 | – | – | activation (at 5.6 µM (top of the series)): 9.5% (inactive) |
| Cc1cc(=O)oc2cc(OCC(=O)N3CCN(C(C)c4ccccc4)CC3)c(Cl)cc12 (stereo not given) | 1980 nM | – | – |
| CCC(=O)N1[C@@H]2c3ccc(/C=C/c4ccccc4)c(=O)n3C[C@H]1[C@H](CO)[C@H]2C(=O)N(C)C | 872 nM | – | – |
| O=C(CSc1cn[nH]n1)Nc1cccc(C(=O)O)c1 | – | 17.4% (inactive) | – |
| O=C(NCC1CC1)[C@H]1[C@H](CO)[C@H]2Cn3c(ccc(/C=C/c4ccccc4)c3=O)[C@@H]1N2C(=O)C1CC1 | 927 nM | – | – |
| C[C@@H]1CCCCO[C@@H](CN(C)Cc2ccc(C(=O)O)cc2)[C@@H](C)CN([C@H](C)CO)C(=O)c2cc(NC(=O)Nc3cccc4ccccc34)ccc2O1 | – | -5.32% (inactive) | – |
| CCCN1[C@@H]2c3ccc(/C=C/c4ccccc4)c(=O)n3C[C@H]1[C@H](CO)[C@H]2C(=O)NCc1ccccn1 | 1000 nM | – | – |
| Cc1noc(C)c1S(=O)(=O)N(C)C[C@@H]1OCCCC[C@@H](C)Oc2ccc(NS(=O)(=O)c3cccs3)cc2C(=O)N([C@@H](C)CO)C[C@@H]1C | – | – | activation (at 10 µM (top of the series)): -12.6% (inactive) |
| CCCN(C)C[C@@H]1OCCCC[C@@H](C)Oc2ccc(NS(=O)(=O)c3ccc(C)cc3)cc2C(=O)N([C@H](C)CO)C[C@@H]1C | – | – | activation (at 10 µM (top of the series)): -8.1% (inactive) |
| O=c1ccc2cc(O[C@@H]3O[C@H](CO)[C@@H](O)[C@H](O)[C@H]3O)c(O)cc2o1 | 307 nM | – | – |

| SMILES | AC200 | activation (at 11 µM (top of the series)) | other results |
| --- | --- | --- | --- |
| CCCN(C)C[C@@H]1OCCCC[C@@H](C)Oc2ccc(NS(=O)(=O)c3ccc(OC)cc3)cc2C(=O)N([C@H](C)CO)C[C@@H]1C | – | – | activation (at 8 µM (top of the series)): -24.7% (inactive) |
| COc1ccc(CN(C)C[C@@H]2OCCCC[C@@H](C)Oc3ccc(NS(=O)(=O)c4cccs4)cc3C(=O)N([C@@H](C)CO)C[C@H]2C)cc1 | – | -1.66% (inactive) | – |
| O=c1oc2cc(O)ccc2cc1S(=O)(=O)c1ccccc1 | 351 nM | – | – |
| COc1ccc(NC(=O)Nc2ccc3c(c2)C(=O)N([C@H](C)CO)C[C@@H](C)[C@@H](CN(C)Cc2ccc(C(=O)O)cc2)OCCCC[C@@H](C)O3)cc1 | – | -5.71% (inactive) | – |
| CCCN1[C@@H]2Cn3c(ccc(/C=C/c4ccccc4)c3=O)[C@H]1[C@@H](C(=O)NCc1ccccn1)[C@@H]2CO | 992 nM | – | – |
| C[C@H](CO)N1C[C@H](C)[C@@H](CN(C)CC2CC2)Oc2c(NC(=O)Nc3ccc(C(F)(F)F)cc3)cccc2C1=O | – | -14.9% (inactive) | – |
| C[C@@H]1CCCCO[C@H](CN(C)C)[C@H](C)CN([C@H](C)CO)C(=O)c2cc(NS(=O)(=O)c3ccc(Cl)cc3)ccc2O1 | – | 8.36% (inactive) | – |
| Cc1noc(C)c1S(=O)(=O)Nc1ccc2c(c1)C(=O)N([C@H](C)CO)C[C@H](C)[C@H](CN(C)Cc1ccc3c(c1)OCO3)OCCCC[C@@H](C)O2 | – | – | activation (at 10 µM (top of the series)): -18.4% (inactive) |
| COc1ccc(CN(C)C[C@@H]2OCCCC[C@@H](C)Oc3ccc(NS(=O)(=O)c4c(C)noc4C)cc3C(=O)N([C@@H](C)CO)C[C@@H]2C)cc1 | – | -18.2% (inactive) | – |
| COc1ccc(-c2cc3ccc(O)cc3oc2=O)cc1 | 398 nM | – | – |
| C[C@@H]1CN([C@H](C)CO)C(=O)c2cc(NC(=O)Nc3ccc(F)cc3)ccc2O[C@H]1CN(C)Cc1ccc(C(=O)O)cc1 | – | 1.25% (inactive) | – |
| CCN(CC)Cc1c(O)ccc2cc(-c3nc4ccccc4n3C)c(=O)oc12 | 229 nM | – | – |
| C[C@@H]1CCCCO[C@@H](CN(C)C)[C@@H](C)CN([C@@H](C)CO)C(=O)c2cc(NS(=O)(=O)c3ccc(F)cc3)ccc2O1 | – | -0.129% (inactive) | – |
| Cc1ccc2nc3c(cc(C(=O)NCc4ccccc4)c(=N)n3CCCn3ccnc3)c(=O)n2c1 | 2010 nM | – | – |
| CCN(CC)c1ccc2c(C)c(Cl)c(=O)oc2c1 | 964 nM | – | – |
| CCc1c(C)c2cc(Cl)c(O)c(CN(C)C)c2oc1=O | 471 nM | – | – |
| CN(C)Cc1c(O)ccc2cc(-c3nc4ccccc4n3C)c(=O)oc12 | 202 nM | – | – |
| Cc1cc(=O)oc2c(CN3CCN(CCO)CC3)c(O)ccc12 | 1450 nM | – | – |
| C[C@H](CO)N1C[C@H](C)[C@H](CN(C)CC2CCCCC2)Oc2c(NC(=O)Nc3ccc4c(c3)OCO4)cccc2C1=O | – | -3.26% (inactive) | – |
| CC(=O)N1[C@@H]2c3ccc(/C=C/c4ccccc4)c(=O)n3C[C@H]1[C@H](CO)[C@H]2C(=O)N(C)C | 906 nM | – | – |
| C[C@@H]1CN([C@H](C)CO)C(=O)c2cccc(NC(=O)Nc3ccccc3)c2O[C@@H]1CN(C)Cc1ccc(C(=O)O)cc1 | – | 17.7% (inactive) | – |
| O=C(NCc1ccccn1)[C@@H]1[C@@H](CO)[C@@H]2Cn3c(ccc(/C=C/c4ccccc4)c3=O)[C@H]1N2CC1CC1 | 1030 nM | – | – |
